# Results reported in publication PMC6832265 (Molecules, 2019).
# Target: T1, Tdp1 (Homo sapiens, UniProt Q9NUW8)
# T1 construct: made in house; host or cells: Escherichia coli
# Assay: Real-time detection of Tdp1 activity (5'-FAM/3'-BHQ1 oligonucleotide biosensor)
# Assay type: biochemical
# Settings: 1.5 nM Tdp1, 50 nM oligonucleotide substrate, 26 °C
# Excerpt: We first studied the inhibition potency of our compounds to Tdp1 by using a real-time oligonucleotide biosensor assay that we have previously developed. The assay was based on the ability of Tdp1 to remove the fluorescence quencher from the 3’-end of DNA. The substrate is a 16-mer single-stranded oligonucleotide containing both a 5’-FAM fluorophore and a 3’-BHQ1 quencher.
# A fluorophore quencher-coupled DNA-biosensor for real-time measurement of Tdp1 cleavage activity was recently designed in our laboratory. The biosensor is a 16-mer single-stranded oligonucleotide containing both a 5’-FAM fluorophore donor and a quenching 3’-BHQ1 moiety.
# Recombinant protein Tdp1 was expressed in EsCherichia coli (pET 16B plasmid containing Tdp1 cDNA provided by Dr. K.W. Caldecott, University of Sussex, United Kingdom) and isolated as described. The reaction mixture in a final volume 200 μL contained Tdp1 reaction buffer (50 mM Tris-HCl, 50 mM NaCl, 7 mM β-mercaptoethanol), 50 nM oligonucleotide substrate, and varied concentrations of potential inhibitor. Purified Tdp1 was added in a final concentration of 1.5 nM.
# The reaction mixtures were incubated at a constant temperature of 26 °C in a POLARstar OPTIMA fluorimeter, BMG LABTECH, GmbH, to measure fluorescence intensity every minute (Ex485/Em520 nm). Tdp1 inhibition was calculated by comparing the rate of increase in fluorescence of the biosensor in the presence of the compound to that of DMSO (1.5%) control wells. The measurements were carried out in at least two independent experiments. IC50 values were determined using a six-point concentration response curve. The data were imported into the MARS Data Analysis 2.0 program (BMG LABTECH) and the slope during the linear phase (data from 0 to 7 min) was calculated.
# T1 sequence (Q9NUW8 whole entry): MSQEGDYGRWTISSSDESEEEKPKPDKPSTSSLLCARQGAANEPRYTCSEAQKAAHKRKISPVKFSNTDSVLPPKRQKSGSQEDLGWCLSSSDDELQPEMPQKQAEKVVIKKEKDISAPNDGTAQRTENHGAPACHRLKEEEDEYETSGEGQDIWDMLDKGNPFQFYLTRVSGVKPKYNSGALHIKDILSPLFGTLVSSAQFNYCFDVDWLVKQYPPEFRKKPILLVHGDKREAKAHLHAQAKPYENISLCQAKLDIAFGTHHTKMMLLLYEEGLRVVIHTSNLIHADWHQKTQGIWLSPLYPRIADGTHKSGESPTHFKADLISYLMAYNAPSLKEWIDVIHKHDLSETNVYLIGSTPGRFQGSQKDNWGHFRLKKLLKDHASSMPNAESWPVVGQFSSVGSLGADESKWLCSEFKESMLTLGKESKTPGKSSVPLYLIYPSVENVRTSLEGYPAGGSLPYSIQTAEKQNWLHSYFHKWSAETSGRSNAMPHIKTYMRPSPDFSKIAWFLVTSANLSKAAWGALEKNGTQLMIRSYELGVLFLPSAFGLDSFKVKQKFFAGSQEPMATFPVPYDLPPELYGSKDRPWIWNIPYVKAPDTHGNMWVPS
row,Compound,IC50 [nM]
1,"CC(=O)C1=C(O)C=C2Oc3c(-c4csc(N/N=C/c5cccnc5)n4)c(O)c(C)c(O)c3[C@@]2(C)C1=O [(+)-16c, 3-[(1E)-(2-{4-[(1R)-12-Acetyl-3,5,11-trihydroxy-1,4-dimethyl-13-oxo-8-oxatricyclo[7.4.0.0^2,7]trideca-2(7),3,5,9,11-pentaen-6-yl]-1,3-thiazol-2-yl}hydrazin-1-ylidene)methyl]pyridin-1-ium bromide]",353 ± 17
2,"CC(=O)C1=C(O)C=C2Oc3c(-c4csc(N/N=C/c5ccccn5)n4)c(O)c(C)c(O)c3[C@]2(C)C1=O [(−)-16b, 2-[(1E)-(2-{4-[(1S)-12-Acetyl-3,5,11-trihydroxy-1,4-dimethyl-13-oxo-8-oxatricyclo [7.4.0.0^2,7]trideca-2(7),3,5,9,11-pentaen-6-yl]-1,3-thiazol-2-yl}hydrazin-1-ylidene)methyl]pyridin-1-ium bromide]",1480 ± 265
3,"CC(=O)C1=C(O)C=C2Oc3c(-c4csc(N/N=C/c5c[nH]c6ccccc56)n4)c(O)c(C)c(O)c3[C@]2(C)C1=O [(−)-16p, (2S)-4-Acetyl-5,11,13-trihydroxy-2,12-dimethyl-10-{2-[(E)-2-[(1H-indole-3-yl)methylidene] hydrazin-1-yl]-1,3-thiazol-4-yl}-8-oxatricyclo[7.4.0.0^2,7]trideca-1(9),4,6,10,12-pentaen-3-one]",57 ± 1
4,"CC(=O)C1=C(O)C=C2Oc3c(-c4csc(N/N=C/c5ccc(-c6cccc(Cl)c6)o5)n4)c(O)c(C)c(O)c3[C@]2(C)C1=O [(−)-16r, (2S)-4-Acetyl-10-{2-[(E)-2-{[5-(3-chlorophenyl)furan-2-yl]methylidene}hydrazin-1-yl]-1,3-thiazol-4-yl}-5,11,13-trihydroxy-2,12-dimethyl-8-oxatricyclo[7.4.0.0^2,7]trideca-1(9),4,6,10,12-pentaen-3-one]",53 ± 3
5,"COc1ccc(/C=N/Nc2nc(-c3c(O)c(C)c(O)c4c3OC3=CC(O)=C(C(C)=O)C(=O)[C@]34C)cs2)cc1COc1ccc(F)cc1 [(−)-17a, (2S)-4-Acetyl-10-{2-[(E)-2-({3-[(4-fluorophenoxy)methyl]-4-methoxyphenyl}methylidene)hydrazin-1-yl]-1,3-thiazol-4-yl}-5,11,13-trihydroxy-2,12-dimethyl-8-oxatricyclo[7.4.0.0^2,7]trideca-1(9),4,6,10,12-pentaen-3-one]",54 ± 3
6,"COc1ccc(/C=N/Nc2nc(-c3c(O)c(C)c(O)c4c3OC3=CC(O)=C(C(C)=O)C(=O)[C@]34C)cs2)cc1COc1cccc(F)c1 [(−)-17b, (2S)-4-Acetyl-10-{2-[(E)-2-({3-[(3-fluorophenoxy)methyl]-4-methoxyphenyl}methylidene)hydrazin-1-yl]-1,3-thiazol-4-yl}-5,11,13-trihydroxy-2,12-dimethyl-8-oxatricyclo[7.4.0.0^2,7]trideca-1(9),4,6,10,12-pentaen-3-one]",78 ± 3
7,"COc1ccc(/C=N/Nc2nc(-c3c(O)c(C)c(O)c4c3OC3=CC(O)=C(C(C)=O)C(=O)[C@]34C)cs2)cc1CSc1cc(C)ccc1C(C)(C)C [(−)-17g, (2S)-4-Acetyl-10-{2-[(E)-2-[(3-{[(2-tert-butyl-5-methylphenyl)sulfanyl]methyl}-4-methoxyphenyl)methylidene]hydrazin-1-yl]-1,3-thiazol-4-yl}-5,11,13-trihydroxy-2,12-dimethyl-8-oxatricyclo[7.4.0.0^2,7]trideca-1(9),4,6,10,12-pentaen-3-one]",94 ± 20
8,"COc1ccc(/C=N/Nc2nc(-c3c(O)c(C)c(O)c4c3OC3=CC(O)=C(C(C)=O)C(=O)[C@]34C)cs2)cc1COc1ccc(Cl)c(C)c1 [(−)-17h, (2S)-4-Acetyl-10-{2-[(E)-2-({3-[(4-chloro-3-methylphenoxy)methyl]-4-methoxyphenyl}methylidene)hydrazin-1-yl]-1,3-thiazol-4-yl}-5,11,13-trihydroxy-2,12-dimethyl-8-oxatricyclo[7.4.0.0^2,7]trideca-1(9),4,6,10,12-pentaen-3-one]",48 ± 2

# Results, then the molecule that gave them:
row,IC50 [nM],Compound
1,91 ± 7,"CC(=O)C1=C(O)C=C2Oc3c(-c4csc(N/N=C/c5ccc(C)s5)n4)c(O)c(C)c(O)c3[C@@]2(C)C1=O [(+)-16e, (2R)-4-Acetyl-5,11,13-trihydroxy-2,12-dimethyl-10-{2-[(E)-2-[(5-methylthiophen-2-yl)methylidene]hydrazin-1-yl]-1,3-thiazol-4-yl}-8-oxatricyclo[7.4.0.0^2,7]trideca-1(9),4,6,10,12-pentaen-3-one]"
2,52 ± 18,"CC(=O)C1=C(O)C=C2Oc3c(-c4csc(N/N=C/c5cccs5)n4)c(O)c(C)c(O)c3[C@@]2(C)C1=O [(+)-16g, (2R)-4-Acetyl-5,11,13-trihydroxy-2,12-dimethyl-10-{2-[(E)-2-[(thiophen-2-yl)methylidene] hydrazin-1-yl]-1,3-thiazol-4-yl}-8-oxatricyclo[7.4.0.0^2,7]trideca-1(9),4,6,10,12-pentaen-3-one]"
3,70 ± 18,"CC(=O)C1=C(O)C=C2Oc3c(-c4csc(N/N=C/c5cc(Br)cs5)n4)c(O)c(C)c(O)c3[C@@]2(C)C1=O [(+)-16h, (2R)-4-Acetyl-5,11,13-trihydroxy-2,12-dimethyl-10-{2-[(E)-2-[(4-bromothiophen-2-yl)methylidene]hydrazin-1-yl]-1,3-thiazol-4-yl}-8-oxatricyclo[7.4.0.0^2,7]trideca-1(9),4,6,10,12-pentaen-3-one]"
4,72 ± 3,"CC(=O)C1=C(O)C=C2Oc3c(-c4csc(N/N=C/c5sccc5C)n4)c(O)c(C)c(O)c3[C@@]2(C)C1=O [(+)-16i, (2R)-4-Acetyl-5,11,13-trihydroxy-2,12-dimethyl-10-{2-[(E)-2-[(3-methylthiophen-2-yl)methylidene]hydrazin-1-yl]-1,3-thiazol-4-yl}-8-oxatricyclo[7.4.0.0^2,7]trideca-1(9),4,6,10,12-pentaen-3-one]"
5,77 ± 6,"CC(=O)C1=C(O)C=C2Oc3c(-c4csc(N/N=C/c5ccoc5)n4)c(O)c(C)c(O)c3[C@@]2(C)C1=O [(+)-16l, (2R)-4-Acetyl-5,11,13-trihydroxy-2,12-dimethyl-10-{2-[(E)-2-[(furan-3-yl)methylidene] hydrazin-1-yl]-1,3-thiazol-4-yl}-8-oxatricyclo[7.4.0.0^2,7]trideca-1(9),4,6,10,12-pentaen-3-one]"
6,188 ± 3,"CC(=O)C1=C(O)C=C2Oc3c(-c4csc(N/N=C/c5ccc[nH]5)n4)c(O)c(C)c(O)c3[C@@]2(C)C1=O [(+)-16m, (2R)-4-Acetyl-5,11,13-trihydroxy-2,12-dimethyl-10-{2-[(E)-2-[(1H-pyrrol-2-yl)methylidene] hydrazin-1-yl]-1,3-thiazol-4-yl}-8-oxatricyclo[7.4.0.0^2,7]trideca-1(9),4,6,10,12-pentaen-3-one]"
7,139 ± 38,"CC(=O)C1=C(O)C=C2Oc3c(-c4csc(N/N=C/c5ccncc5)n4)c(O)c(C)c(O)c3[C@]2(C)C1=O [(−)-16a, 4-[(1E)-(2-{4-[(1S)-12-Acetyl-3,5,11-trihydroxy-1,4-dimethyl-13-oxo-8-oxatricyclo[7.4.0.0^2,7]trideca-2(7),3,5,9,11-pentaen-6-yl]-1,3-thiazol-2-yl}hydrazin-1-ylidene)methyl]pyridin-1-ium bromide]"
8,142 ± 4,"CC(=O)C1=C(O)C=C2Oc3c(-c4csc(N/N=C/c5ccc([N+](=O)[O-])s5)n4)c(O)c(C)c(O)c3[C@]2(C)C1=O [(−)-16d, (2S)-4-Acetyl-5,11,13-trihydroxy-2,12-dimethyl-10-{2-[(E)-2-[(5-nitrothiophen-2-yl)methylidene]hydrazin-1-yl]-1,3-thiazol-4-yl}-8-oxatricyclo[7.4.0.0^2,7]trideca-1(9),4,6,10,12-pentaen-3-one]"
9,54 ± 25,"CC(=O)C1=C(O)C=C2Oc3c(-c4csc(N/N=C/c5ccc(C)s5)n4)c(O)c(C)c(O)c3[C@]2(C)C1=O [(−)-16e, (2S)-4-Acetyl-5,11,13-trihydroxy-2,12-dimethyl-10-{2-[(E)-2-[(5-methylthiophen-2-yl)methylidene]hydrazin-1-yl]-1,3-thiazol-4-yl}-8-oxatricyclo[7.4.0.0^2,7]trideca-1(9),4,6,10,12-pentaen-3-one]"
10,121 ± 25,"CC(=O)C1=C(O)C=C2Oc3c(-c4csc(N/N=C/c5sccc5C)n4)c(O)c(C)c(O)c3[C@]2(C)C1=O [(−)-16i, (2S)-4-Acetyl-5,11,13-trihydroxy-2,12-dimethyl-10-{2-[(E)-2-[(3-methylthiophen-2-yl)methylidene]hydrazin-1-yl]-1,3-thiazol-4-yl}-8-oxatricyclo[7.4.0.0^2,7]trideca-1(9),4,6,10,12-pentaen-3-one]"
11,29 ± 9,"CC(=O)C1=C(O)C=C2Oc3c(-c4csc(N/N=C/c5cccn5C)n4)c(O)c(C)c(O)c3[C@]2(C)C1=O [(−)-16n, (2S)-4-Acetyl-5,11,13-trihydroxy-2,12-dimethyl-10-{2-[(E)-2-[(1-methyl-pyrrol-2-yl)methylidene]hydrazin-1-yl]-1,3-thiazol-4-yl}-8-oxatricyclo[7.4.0.0^2,7]trideca-1(9),4,6,10,12-pentaen-3-one]"
